Results as given in patent publication EP4722219A1 (Gan & Lee Pharmaceuticals Co., Ltd., priority 2023, dated 2024).
pIC50: −log10 of the molar value. Where two headings read alike, the source gives them in different places.

Experiments:
SMARCA2 [1] = target: T1, SMARCA2 (Homo sapiens, UniProt P51531); experiment: SMARCA2 degradation in SW1573 cells (Western blot); assay type: cell-based; parameters: endogenous in cells; host or cells: SW1573; conditions: 24 hours
Description: (§1) Test Example 10 Degradation rate (%) of SMARCA2/4 by the PROTAC compounds of the present invention in HeLa cells and SW1573 cells
SW1573 cells were seeded at 2x10^5Cells/well in a 6-well plate. 2 mL of EMEM medium supplemented with 10% FBS was added to each well and was incubated overnight to allow cell attachment. The next day, 1 µL of 160 µM and 1 µL of 2 µM compound were added to the corresponding wells for treatment, resulting in final compound concentrations of 80 nM and 1 nM, respectively, and a final DMSO concentration of 0.05%. The cells were returned to the incubator and incubated for another 24 hours.
(§2) After 24 hours, cells were harvested, the medium was aspirated, and the cells were rinsed once with 1 mL/well PBS. The PBS was aspirated, and 40 µL/well of RIPA lysis buffer containing protease inhibitors was added. After lysis and centrifugation, total protein extracts were obtained, and protein concentration in the extracts was determined by BCA assay. Protein electrophoresis was performed by SDS-PAGE, followed by constant voltage electrophoresis at 100 V for 60 minutes and the protein was then transferred to a PVDF membrane. The PVDF membrane was blocked in 5% skim milk powder for 1 hour at room temperature. Primary antibodies (SMARCA2: CST#11966S, SMARCA4: CST#49360S, GAPDH: CST#5174S) were added and incubated overnight at 4°C. After washing the membrane, secondary antibodies were added and incubated at room temperature for 1 hour (protected from the light). After washing, the membrane was exposed using an Odyssey luminometer. Grayscale analysis of bands was performed using Image Studio software.
(§3) The degradation rate (%) of SMARCA2/4 by the PROTAC compounds of the present invention in HeLa cells and SW1573 cells is shown in Table 10. Table 10 Degradation rate of SMARCA2/4 by PROTAC compounds of the present invention in HeLa cells and SW1573 cells (%)

SMARCA2 [2] = target: T1, SMARCA2; experiment: SMARCA2 degradation in HeLa cells (Western blot); assay type: cell-based; parameters: endogenous in cells; conditions: 4 hours
Description: as §1
HeLa cells were seeded at 1.2 x 10^5 cells/well in a 6-well plate. 2 mL of EMEM medium supplemented with 10% FBS was added to each well and the culture dish was incubated overnight to allow the cells to adhere. The next day, 1 µL of 160 µM and 1 µL of 2 µM compound were added to the corresponding wells, resulting in final compound concentrations of 80 nM and 1 nM, respectively, and a final DMSO concentration of 0.05%. The cells were returned to the incubator and incubated for another 4 hours.
as §2, with “After 4 hours, cells” for “After 24 hours, cells”, “harvested, the culture medium was” for “harvested, the medium was”
as §3

CRBN protein = CRBN protein (Homo sapiens, UniProt Q96SW2); experiment: Binding activity to E3 ubiquitin ligase CRBN (HTRF competitive binding kit, Thalidomide-Red)
Description: Binding activity of the E3 ligase inhibitor disclosed in the present invention to E3 ubiquitin ligase CRBN
CRBN binding activity test kit (CEREBLON BINDING KITS (PE, 64BD CRBN PEG).
The detection is based on homogeneous time-resolved fluorescence (HTRF) technology.
This kit uses a europium-labeled GST antibody (GST Eu Cryptate Antibody) as the donor and XL665-labeled thalidomide (Thalidomide-Red reagent) as the receptor. The donor binds to the GST-tagged CRBN protein.
The donor and receptor were each diluted 50-fold using the buffer provided in the kit (PROTAC binding buffer 1). The CRBN protein was diluted 45-fold. An 8mM solution of the compound disclosed herein was diluted 10-fold using the diluent provided in the kit (1X diluent), followed by 7 successive 5-fold serial dilutions of the resulting solution.
The ratio of the acceptor and donor emission signals was calculated for each individual well.
IC50 values was calculated based on compound concentration, Ratio, and coefficient of variation using GraphPad Prism.

[3] = competition with XL665-labeled thalidomide for GST-tagged CRBN protein, HTRF, 3 hours at room temperature, read-out: IC50
[4] = competition with XL665-labeled thalidomide for GST-tagged CRBN protein, HTRF, 3 hours at room temperature

SMILES | Degradation rate of SMARCA2 in SW1573 cells (%) (SMARCA2 [1]; 1 nM) | Degradation rate of SMARCA2 in SW1573 cells (%) (SMARCA2 [1]; 80 nM) | Degradation rate of SMARCA2 in HeLa cells (%) (SMARCA2 [2]; 1 nM) | Degradation rate of SMARCA2 in HeLa cells (%) (SMARCA2 [2]; 80 nM) | pIC50 (CRBN protein; [3]) | further results
COc1cc2c(cc1C(=O)N[C@H]1CCC(=O)NC1=O)C1(CCN(C3CC4(CCC(C#Cc5cc(-c6ccccc6O)nnc5N)CC4)C3)CC1)CO2 (stereo partly drawn) [SM-P-14, (S)-1'-(7-((3-amino-6-(2-hydroxyphenyl)pyridazin-4-yl)ethynyl)spiro[3.5]nonan-2-yl)-N-(2,6-dioxopiperidin-3-yl)-6-methoxy-2H-spiro[benzofuran-3,4'-piperidin]-5-carboxamide] | 22% | 14% | -7% | -3% |  | 
Cn1c(=O)n(C2CCC(=O)NC2=O)c2ccc3c(c21)OCC31CCN(C2CN(c3cc(-c4ccccc4O)nnc3N)C2)CC1 (stereo not drawn) [SM-P-37, 3-(1'-(1-(3-amino-6-(2-hydroxyphenyl)pyridazin-4-yl)azetidin-3-yl)-1-methyl-2-oxo-1,2-dihydro-3H,7H-spiro[benzofuro[6,7-d]imidazole-6,4'-piperidin]-3-yl)piperidine-2,6-dione] |  |  | 24% | 33% |  | 
Cn1c(=O)n(C2CCC(=O)NC2=O)c2ccc3c(c21)OCC31CCN(C[C@H]2CC[C@H](n3cc(-c4cc(-c5ccccc5O)nnc4N)cn3)CC2)CC1 (stereo partly drawn) [SM-P-35] | 100% | 100% | 100% | 99% |  | 
Cn1c(=O)n(C2CCC(=O)NC2=O)c2ccc3c(c21)OCC31CCN(C2CC3(CCC(C#Cc4cc(-c5ccccc5O)nnc4N)CC3)C2)CC1 (stereo not drawn) [SM-P-26, 3-(1'-(7-((3-amino-6-(2-hydroxyphenyl)pyridazin-4-yl)ethynyl)spiro[3.5]nonan-2-yl)-1-methyl-2-oxo-1,2-dihydro-3H,7H-spiro[benzofuro[6,7-d]imidazole-6,4'-piperidin]-3-yl)piperidine-2,6-dione] | 100% | 99% | 100% | 99% |  | 
Cn1c(=O)n(C2CCC(=O)NC2=O)c2cc3c(cc21)C1(CCN(C[C@H]2CC[C@H](Cn4cc(-c5cc(-c6ccccc6O)nnc5N)cn4)CC2)CC1)CO3 (stereo partly drawn) [SM-P-30, 3-(1'-(((1r,4r)-4-((4-(3-amino-6-(2-hydroxyphenyl)pyridazin-4-yl)-1H-pyrazol-1-yl)methyl)cyclohexyl)methyl)-1-methyl-2-oxo-1,2-dihydro-3H,6H-spiro[benzofuro[5,6-d]imidazole-7,4'-piperidin]-3-yl)piperidine-2,6-dione] | 99% | 97% | 99% | 90% |  | 
O=C1CC[C@H](NC(=O)c2cc3c(cc2F)N2CCNC[C@H]2CO3)C(=O)N1 [Compound B8, (S)-N-((S)-2,6-Dioxyhesperidin-3-yl)-9-fluoro-1,2,3,4,4,4a,5-hexahydrobenzo[b]pyrazino[1,2-d][1,4]oxazine-8-carboxamide] |  |  |  |  | 4.57 | 
Nc1nnc(-c2ccccc2O)cc1C#CC1CCC2(CC1)CC(N1CCC3(CC1)COc1cc(C(=O)N[C@H]4CCC(=O)NC4=O)c(F)cc13)C2 (stereo partly drawn) [SM-P-8] | 9% | 61% | 28% | 64% |  | 
COc1cc2c(cc1C(=O)N[C@H]1CCC(=O)NC1=O)OCC[C@H]1CNCCN21 [Compound B9, (S)-N-((S)-2,6-Dioxopiperidin-3-yl)-10-methoxy-2,3,4,4a,5,6-hexahydro-1H-benzo[b]pyrazine[1,2-d][1,4]oxazepine-9-carboxamide] |  |  |  |  |  | pIC50 (CRBN protein): 4.89
O=C1CC[C@H](NC(=O)c2cc3c(cc2F)CCC2(CCNCC2)O3)C(=O)N1 [Compound A6, (S)-N-(2,6-dioxopiperidin-3-yl)-6-fluorospiro[chroman-2,4'-piperidine]-7-carboxamide] |  |  |  |  | 4.45 | 
Cn1c(=O)n(C2CCC(=O)NC2=O)c2cc3c(cc21)C1(CCN(C[C@H]2CC[C@H](n4cc(-c5cc(-c6ccccc6O)nnc5N)cn4)CC2)CC1)CO3 (stereo partly drawn) [SM-P-36] | 100% | 98% | 99% | 97% |  | 
O=C1CCC(Nc2ccc3c(c2)OC2(CCNCC2)CC3)C(=O)N1 (stereo not drawn) [Compound C4, 3-(Spiro[2,4'-piperidino]-7-ylamino)piperidine-2,6-dione] |  |  |  |  |  | pIC50 (CRBN protein; [4]): 5.00
O=C1CC[C@H](NC(=O)c2ccc3c(c2)OCC[C@H]2CNCCN32)C(=O)N1 [Compound B11, (S)-N-((S)-2,6-Dioxopiperidin-3-yl)-2,3,4,4a,5,6-hexahydro-1H-benzo[b]pyrazino[1,2-d][1,4]oxazepine-9-carboxamide] |  |  |  |  | 4.26 | 
CN(c1ccc2c(c1)COC[C@H]1CNCCN21)C1CCC(=O)NC1=O (stereo partly drawn) [Compound C14] |  |  |  |  | 5.73 | 
Cn1c(=O)n(C2CCC(=O)NC2=O)c2cc3c(cc21)OC1(CCNCC1)CC3 (stereo not drawn) [Compound D5] |  |  |  |  |  | pIC50 (CRBN protein): 6.18
O=C1CC[C@H](NC(=O)c2cc3c(cc2F)OCC32CCNCC2)C(=O)N1 [Compound A3, (S)-N-(2,6-dioxopiperidin-3-yl)-6-fluoro-2H-spiro[benzofuran-3,4'-piperidine]-5-carboxamide] |  |  |  |  | 4.28 | 
CN(c1ccc2c(c1)OC[C@H]1CNCCN21)C1CCC(=O)NC1=O (stereo partly drawn) [Compound C10, 3-(((R)-1,2,3,4,4a,5-Hexahydrobenzo[b]pyrazino[1,2-d][1,4]oxazine-8-yl)(methyl)amino)piperidine-2,6-dione] |  |  |  |  | 5.69 | 
O=C1CC[C@H](NC(=O)c2c(F)ccc3c2OCC32CCNCC2)C(=O)N1 [Compound A2, (S)-N-(2,6-dioxopiperidin-3-yl)-6-fluoro-2H-spiro[benzofuran-3,4'-piperidine]-7-carboxamide] |  |  |  |  | 4.92 | 
COc1c(C(=O)N[C@H]2CCC(=O)NC2=O)ccc2c1OC[C@H]1CNCCN21 [Compound B6, (R)-N-((S)-2,6-Dioxyhesperidin-3-yl)-7-methoxy-1,2,3,4,4a,5-hexahydrobenzo[b]pyrazino[1,2-d][1,4]oxazine-8-carboxamide] |  |  |  |  |  | pIC50 (CRBN protein): 4.31
O=C1CCC(Nc2ccc3c(c2)CCC2(CCNCC2)O3)C(=O)N1 (stereo not drawn) [Compound C3] |  |  |  |  |  | pIC50 (CRBN protein; [4]): 5.26
O=C1CCC(Nc2ccc3c(c2)OCC[C@H]2CNCCN32)C(=O)N1 (stereo partly drawn) [Compound C12] |  |  |  |  | 5.26 | 
